# Assay results reported in patent US20260109944A1, “Culture Method for Organoids” (Koninklijke Nederlandse Akademie Van Wetenschappen, priority 2014, published 2026).
# Tests used:
# [1] = system: LGR5 expression in human liver cultures; assay: qPCR analysis of LGR5 expression; format: cell-based; conditions: 4 week old cultures, presence vs absence of FSK
# Description: (§1) Lgr5 expression was analysed in cultures grown in our defined culture medium by immunofluorescence and flow cytometry analysis. (FIG. 5A) Confocal image of a human liver organoid showing that the organoids are formed by epithelial derived cells positive for EPCAM (blue). The stem cell marker Lgr5 (green) was restricted to a subset of cells within the organoid, while the Wnt target gene EPHB2 (red) was broadly expressed, but colocalized with LGR5 as expected. Staining was performed on single cells isolated from a culture that had been cultured for >4 weeks in the presence or absence of FSK. Only in the presence of FSK Lgr5 cells could be readily detected as a 1-3% of the culture population. Experiment was performed in 2 independent human liver donor cultures. (FIG. 5C) qPCR analysis of the expression of LGR5 in 4 week old cultures treated in the presence or absence of FSK.
# [2] = system: human liver organoids; assay: Long-term expansion (passaging) of human liver organoids; format: cell-based
# Description: Human liver cells isolated by collagenase dissociation were dissociated to single cell, counted and 3000 or 10000 cells were seeded per well in a 48 well plate. Mouse liver culture medium (ERFHNic) or medium supplemented with A8301 or A8301 and BMP7 or A8301 and BMP7 and Forskolin (FSK) was overlaid as indicated and organoids were allowed to grow. The cultures were split every week 7-10 days at a ratio of 1:4-1:6 dilution.
# Human liver organoids were seeded in mouse medium supplemented with A8301 and with one of the CAMP activators as indicated in FIG. 4. Cholera toxin was used at a concentration of 100 ng/ml. Only the cultures that were treated with CAMP activators were able to be expanded >2 months (P8).
# Liver cells were isolated by collagenase digestion as follows: tissue (0.5-1 cm^3) was minced, rinsed 2× with DMEM (Gibco) 1% FCS and incubated with the digestion solution (2.5 mg/ml collagenase D (Roche)+0.1 mg/ml DNase I (Sigma) in EBSS (Hyclone, Thermoscientific), for […] at 37° C. The digestion was stopped by adding cold DMEM 1% FCS and the suspension was then filtered through a 70 um Nylon cell strainer and spun 5 min at 300-400 g. The pellet was resuspended in DMEM 1% FCS and kept cold. Any material retained on the strainer was further digested for 10 min in Accutase (Innovative Cell Technologies) at 37° C. Then, the digestion was stopped and the cells were collected as before. The different fractions (collagenase and accutase) were mixed and washed with cold Advanced DMEM/F12 and spun at 300-400 g for 5 min. The cell pellet was mixed with Matrigel (BD bioscience) and 3000-10000 cells were seeded per well in a 48 well/plate. After Matrigel had solidified, culture medium was added. Culture media was based on AdDMEM/F12 (Invitrogen) supplemented with N2 and B27 without retinoic acid (both from Gibco), 1.25 mM N-Acetylcysteine (Sigma). 10 nM gastrin (Sigma) and the growth factors: 50 ng/ml EGF (Peprotech), 10% RSPO1 conditioned media (home-made), 100 ng/ml FGF10 (Peprotech). 25 ng/ml HGF, 10 mM Nicotinamide (Sigma), 5 uM TGF-beta inhibitor (A83.01 (Tocris)) and 10 uM FSK (Tocris). For the establishment of the culture, the first 3 days after isolation the medium was supplemented with 25 ng/ml Noggin (Peprotech), 30% Wnt CM (home-made prepared as described in (Barker and Huch 2010)), 10 uM Rock inhibitor (Y27632) and hES Cell cloning Recovery solution (Stemgent). Then, the medium was changed into a medium without Noggin, Wnt. Y27632, hES Cell cloning Recovery solution (Stemgent) while 25 ng/ml BMP7 (Peprotech) were supplemented on top. One week-10 days organoids were removed from the Matrigel, mechanically dissociated into small fragments, and transferred to fresh Matrigel. Passage was performed in 1:4-1:8 split ratio once per week for at least 6 months. […]
# [3] = system: Lgr5 cells in human liver cultures; assay: Flow cytometry analysis of LGR5 positive cells; format: cell-based; conditions: cultured >4 weeks in the presence of FSK; not readily detected in absence; 2 donor cultures
# Description: as §1
# Exponentially growing organoids were cultured for at least 5 days in the presence or absence of FSK. Then, organoids were dissociated into single cells using Accutase, resuspended in DMEM+2% FBS and incubated with Lgr5 antibody (AP2745d, Abgent) for 45 min. […] Cells were analyzed with a BD FACS Calibur (Becton-Dickinson); FSC: propidium iodide was used to label dead cells for exclusion and pulse-width gating to exclude cell doublets.
# [4] = system: cAMP pathway; conditions: compared with 8-BR-cAMP and forskolin; cited from earlier work
# [5] = system: human liver organoid cultures (ALB, CYP3A4 expression); conditions: hepatocytes
# [6] = culture medium supplemented with A8301 combined with FSK, split ratio 1:4-1:6 every 7-10 days
molecule,measurement,setting,value
"C=C[C@@]1(C)CC(=O)[C@]2(O)[C@@]3(C)[C@@H](O)CCC(C)(C)[C@@H]3[C@H](O)[C@H](OC(C)=O)[C@@]2(C)O1 [FSK, forskolin]","LGR5 expression levels, upregulation upon treatment",[1],2-3 ×
same,number of passages the cultures were able to grow,[2]; [6],> 18 passages
same,time the cultures were able to grow,[2]; [6],> 5 months
same,Lgr5 cells as % of the culture population,[3],1-3%
C=C[C@@]1(C)CC(=O)[C@]2(O)[C@@]3(C)[C@@H](O)CCC(C)(C)[C@@H]3[C@H](OC(=O)CCN(C)C)[C@H](OC(C)=O)[C@@]2(C)O1.Cl [NKH477],relative potency as cAMP pathway activator,[4],generally more potent than 8-BR-CAMP and forskolin
"Cc1cccc(-c2nn(C(=S)Nc3ccccc3)cc2-c2ccnc3ccccc23)n1 [A83-01, 3-(6-Methyl-2-pyridinyl)-N-phenyl-4-(4-quinolinyl)-1H-pyrazole-1-carbothioamide]",long-term expansion outcome,[2]; medium supplemented with A8301 only (no FSK),arrested proliferation after some weeks in culture
"BMP7: BMP pathway activator; induces the phosphorylation of SMAD1 and SMAD5 (protein, UniProt P18075 293-431, looked up) Bone morphogenetic protein 7: STGSKQRSQNRSKTPKNQEALRMANVAENSSSDQRQACKKHELYVSFRDLGWQDWIIAPEGYAAYYCEGECAFPLNSYMNATNHAIVQTLVHFINPETVPKPCCAPTQLNAISVLYFDDSSNVILKKYRNMVVRACGCH",long-term expansion outcome,[2]; medium supplemented with BMP7 and A8301 (no FSK),arrested proliferation after some weeks in culture
same,effect on expression of hepatocyte markers ALB and CYP3A4,[5],slightly facilitated the expression of hepatocyte markers ALB and CYP3A4
